Assay results from US20100255580A1, “Differentiation of Human Embryonic Stem Cells” (LIFESCCAN, INC., priority 2007, published 2010).
“And” between values parts separate entries of the source, which are not always exact repeats. Equal values may be shown once.

Test system: human embryonic stem cell line H9
Test: Cytokine array analysis of cell lysates and conditioned media
Type: cell-based
Set-up: key to BMP-4 expression / BMP-6 expression / EGF expression / FGF-6 expression / Fractalkine expression / GCP-2 expression / IL-3 expression / IL-4 expression / IL-6 expression / M-CSF expression / MIG expression / Amphiregulin expression: cytokine array signal, normalized and background-subtracted
Protocol: The effect that Wnt-3a treatment has on cytokine expression was analyzed using a protein array. Cells of the human embryonic stem cell line H9 were cultured according to the methods described in Example 15. At passage 54, cells were differentiated in the presence of 100 ng/ml ActivinA+/−10 ng/ml Wnt3a for 2 days in 0.5% FBS DMEM/F12. Cells were subsequently cultured for an additional three days in 100 ng/mlActivin A and 2% FBS DMEM/F12. At the end of the 5th day, CXCR4 expression was determined by FACS for each treatment group.
Cell lysates were prepared from cells of each treatment group, with a mammalian cell lysis kit (Sigma-Aldrich, MO). Conditioned media from each treatment group was collected and concentrated. Cytokine array analysis was completed using Cytokine Array panels provided by RayBiotech, GA (http://www.raybiotech.com/). Table VII lists cytokine, growth factor, and receptor expression following normalization of the data and background subtraction. For each panel, positive and negative controls are also included. Th data shown are two independent samples per cell treatment group (1,2).

In the case of Wnt-3a, the 1L-1beta expression (Cell conditioned media) is reported as 316.59 and 278.30, the 1L-1ra expression (Cell conditioned media) is reported as 354.23 and 581.75 and the Acrp30 expression (Cell conditioned media) is reported as 2,795.71 and 2,302.99. The AgRP expression (Cell conditioned media) was 651.26 and 482.21, the Amphiregulin expression (Cell conditioned media) was 619.07 and 782.60 and the Angiogenin expression (Cell conditioned media) was 57,442.48 and 54,969.04. The Angiopoietin-2 expression (Cell conditioned media) was 65,959.24 and 71,664.21, the AxI expression (Cell conditioned media) was 610.40 and 748.34 and the BDNF expression (Cell conditioned media) was 770.08 and 715.86. The BLC expression (Cell conditioned media) was 337.12 and 249.80, the BMP-6 expression (Cell conditioned media) was 985.70 and 670.60 and the “CK beta 8-1 expression” value (Cell conditioned media) was 42.78 and 75.44. For the same substance, the CNTF expression (Cell conditioned media) was 787.19 and 541.51, the EGF expression (Cell conditioned media) was 23,331.57 and 22,768.53 and the Eotaxin-2 expression (Cell conditioned media) was 2,156.21 and 1,445.14. For the same substance, the Eotaxin-3 expression (Cell conditioned media) was 2,140.81 and 1,480.35, the FGF-6 expression (Cell conditioned media) was 3,283.94 and 2,519.78 and the “Flt-3 Ligand expression” value (Cell conditioned media) was 511.67 and 792.98. For the same substance, the Fractalkine expression (Cell conditioned media) was 359.37 and 367.15, the GCP-2 expression (Cell conditioned media) was 451.78 and 362.12 and the GDNF expression (Cell conditioned media) was 443.22 and 509.66. For the same substance, the GM-CSF expression (Cell conditioned media) was 1,808.82 and 1,446.82, the I-309 expression (Cell conditioned media) was 318.30 and 288.36 and the IFN-gamma expression (Cell conditioned media) was 1,238.97 and 1,435.08. For the same substance, the IGF-I expression (Cell conditioned media) was 254.98 and 187.77, the IGFBP-1 expression (Cell conditioned media) was 227.60 and 155.91 and the IGFBP-2 expression (Cell conditioned media) was 42,215.53 and 43,934.33. For the same substance, the IGFBP-4 expression (Cell conditioned media) was 18,988.34 and 13,380.14, the IL-1alpha expression (Cell conditioned media) was 3,999.26 and 3,545.79 and the IL-2 expression (Cell conditioned media) was 758.10 and 881.84. For the same substance, the IL-3 expression (Cell conditioned media) was 11,345.78 and 12,174.73, the IL-4 expression (Cell conditioned media) was 804.30 and 673.95 and the IL-5 expression (Cell conditioned media) was 2,120.27 and 1,713.38. For the same substance, the IL-6 expression (Cell conditioned media) was 9,774.82 and 9,991.93, the IL-10 expression (Cell conditioned media) was 1,625.71 and 1,129.96 and the IL-13 expression (Cell conditioned media) was 2,522.42 and 1,807.27. The IL-15 expression (Cell conditioned media) was 2,495.04 and 1,981.62, the IL-16 expression (Cell conditioned media) was 436.38 and 405.71 and the LIGHT expression (Cell conditioned media) was 1,346.78 and 1,108.17. For the same substance, the Leptin expression (Cell conditioned media) was 7,238.71 and 4,886.99, the M-CSF expression (Cell conditioned media) was 740.98 and 684.01 and the MCP-1 expression (Cell conditioned media) was 2,015.89 and 1,567.53. The MCP-2 expression (Cell conditioned media) was 694.78 and 694.07, the MCP-3 expression (Cell conditioned media) was 701.62 and 583.42 and the MCP-4 expression (Cell conditioned media) was 231.02 and 276.62. The MIP-1-delta expression (Cell conditioned media) was 474.02 and 291.71, the MIP-3-alpha expression (Cell conditioned media) was 208.78 and 184.41 and the NAP-2 expression (Cell conditioned media) was 371.35 and 343.68. The NT-3 expression (Cell conditioned media) was 571.57 and 427.51, the PARC expression (Cell conditioned media) was 474.02 and 363.80 and the PDGF-BB expression (Cell conditioned media) was 2,635.37 and 2,005.09. For the same substance, the RANTES expression (Cell conditioned media) was 682.80 and 855.01, the SCF expression (Cell conditioned media) was 1,394.69 and 2,155.98 and the SDF-1 expression (Cell conditioned media) was 326.85 and 616.95. The “TGF-beta 1 expression” value (Cell conditioned media) was 1,827.65 and 1,849.18, the “TGF-beta 3 expression” value (Cell conditioned media) was 294.34 and 343.68 and the TNF-alpha expression (Cell conditioned media) was 2,609.70 and 2,167.71. For the same substance, the TNF-beta expression (Cell conditioned media) was 1,701.01 and 1,637.94, the bFGF expression (Cell conditioned media) was 1,226.99 and 1,241.09 and the 1L-1beta expression (Cell lysate) was 352.05 and 312.08. The 1L-1ra expression (Cell lysate) was 302.68 and 198.48, the Acrp30 expression (Cell lysate) was 601.61 and 690.66 and the AgRP expression (Cell lysate) was 77.82 and 89.00. The Angiogenin expression (Cell lysate) was 619.40 and 750.85, the AxI expression (Cell lysate) was 88.59 and 139.03 and the BDNF expression (Cell lysate) was 763.51 and 951.45. For the same substance, the BLC expression (Cell lysate) was 742.24 and 476.36, the BMP-4 expression (Cell lysate) was 348.44 and 304.48 and the BMP-6 expression (Cell lysate) was 571.23 and 641.05. For the same substance, the “CK beta 8-1 expression” value (Cell lysate) was 22.48 and 21.54, the CNTF expression (Cell lysate) was 1,382.51 and 1,060.82 and the EGF expression (Cell lysate) was 742.24 and 984.39. The Eotaxin expression (Cell lysate) was 301.87 and 253.80, the Eotaxin-3 expression (Cell lysate) was 934.12 and 847.56 and the “Flt-3 Ligand expression” value (Cell lysate) was 857.45 and 795.19. For the same substance, the Fractalkine expression (Cell lysate) was 792.02 and 456.51, the GCP-2 expression (Cell lysate) was 593.71 and 538.86 and the GDNF expression (Cell lysate) was 436.75 and 444.68. The GM-CSF expression (Cell lysate) was 1,343.17 and 1,161.75, the I-309 expression (Cell lysate) was 708.52 and 743.25 and the IFN-gamma expression (Cell lysate) was 1,202.67 and 1,037.60. For the same substance, the IGFBP-1 expression (Cell lysate) was 59.41 and 85.73, the IGFBP-2 expression (Cell lysate) was 2,671.90 and 2,414.72 and the IGFBP-4 expression (Cell lysate) was 4,459.85 and 4,173.19. The IL-1alpha expression (Cell lysate) was 1,612.93 and 1,421.89, the IL-3 expression (Cell lysate) was 2,119.94 and 1,497.48 and the IL-4 expression (Cell lysate) was 625.42 and 638.94. For the same substance, the IL-5 expression (Cell lysate) was 1,245.23 and 1,167.24, the IL-10 expression (Cell lysate) was 1,222.75 and 1,096.30 and the IL-13 expression (Cell lysate) was 1,486.89 and 1,407.96. For the same substance, the IL-15 expression (Cell lysate) was 1,677.16 and 1,601.79, the IL-16 expression (Cell lysate) was 651.11 and 668.50 and the Leptin expression (Cell lysate) was 1,234.39 and 1,091.65. The M-CSF expression (Cell lysate) was 852.63 and 867.83, the MCP-1 expression (Cell lysate) was 1,022.03 and 1,076.03 and the MCP-3 expression (Cell lysate) was 1,184.61 and 1,255.50. The MCP-4 expression (Cell lysate) was 1,380.51 and 1,606.86, the MDC expression (Cell lysate) was 269.36 and 280.41 and the MIG expression (Cell lysate) was 1,113.16 and 1,137.26. For the same substance, the MIP-1-delta expression (Cell lysate) was 491.75 and 322.22, the MIP-3-alpha expression (Cell lysate) was 1,602.09 and 1,399.93 and the NT-3 expression (Cell lysate) was 316.73 and 275.76. For the same substance, the PARC expression (Cell lysate) was 352.85 and 353.04, the PDGF-BB expression (Cell lysate) was 517.84 and 597.56 and the RANTES expression (Cell lysate) was 724.98 and 637.25. The SCF expression (Cell lysate) was 1,152.50 and 1,021.13, the TARC expression (Cell lysate) was 372.93 and 343.33 and the “TGF-beta 1 expression” value (Cell lysate) was 1,426.67 and 1,240.30. The TNF-alpha expression (Cell lysate) was 2,851.74 and 1,285.91, the TNF-beta expression (Cell lysate) was 1,049.33 and 1,026.62 and the bFGF expression (Cell lysate) was 11,722.95 and 21,398.52. For the same substance, the “IGFBP-1, TGFbeta-1 and TGFbeta-3 in cell lysates” value (Wnt3a treated vs Activin A only) was “upregulated” and the “Angiogenin, IGFBP-1 and EGF in cell conditioned media” value (Wnt3 treated vs Activin A only) was “Noticeable upregulation”.
